Reference: patent publication US20240245702A1, “Inhibition of Lysine Demethylase 1 (Lsd1) Induces Differentiation of Hair Cells” (Massachusetts Eye and Ear Infirmary, priority 2018, published 2024)

Key:
Atoh1 locus = experiment: Chromatin immunoprecipitation (ChIP-qPCR) of histone marks on the Atoh1 gene in LCPs; type: cell-based, mouse
Procedure: Chromatin immunoprecipitation. The colonies were treated with Cell Recovery solution for up to 2 hours and TrypleE for 30 minutes. The cells were fixed with 1% formaldehyde for 30 minutes at room temperature before termination with 0.1M Glycine. The cells were treated with lysis buffer (0.5M EDTA and 0.05% Triton-X 100) for 30 minutes on ice and then with nuclear extraction buffer (0.5M EDTA, 20% SDS, 1M Tris-HCl, pH 8) for 10 minutes. The cross-linked chromatin was sonicated for 30 minutes (30×30 seconds with 30 second intervals) and shearing quality confirmed by running 10 ul of the sample on a 1% agarose gel. The input sample used was 5% of the total chromatin. Lo-bind tubes containing Dyna-A and Dyna-B beads in PBS-BSA were incubated with 3 μg of Primary antibody for 6 hours-overnight with rotation at 4° C. The antibodies used were as follows H3K4me (ab8895: Abcam), H3K4me2 (ab77661: Abcam), H3K9me2 (ab1220; Abcam) and Lsd1 (ab17721: Abcam). The chromatin samples were treated with dilution buffer (1% Triton-X 100, 0.5M EDTA, 5M NaCl, 1M Tris-HCl, pH 8 and 1% Protease inhibitors×100) and incubated with the prepared beads for 6 hours-overnight. The beads were captured on a magnetic rack, washed with ChIP RIPA buffer (1M Hepes, 0.5M EDTA, 10% Na-deoxycholate, NP-40 and 5M LiCl: 6×10 minute washes), TE buffer (1M Tris-HCl and 0.5M EDTA: 2×10 minute washes), resuspended in reverse crosslinking solution (0.5M NaHCO3 and 20% SDS) and incubated overnight at 65° C. DNA was recovered using the Active motif DNA extraction kit (58002: Active Motif). RT-qPCR analyses were performed on immunoprecipitated DNA using specific primers described in Table 2. The results were calculated and presented as relative fold enrichment over the input.
In order to further dissect the mechanism of Lsd1 activity, we analyzed changes in epigenetic marks on several sites along the Atoh1 gene using chromatin immunoprecipitation. We used the LCPs starting at day 0 (D0) of differentiation with day 10 (D10) as the endpoint (FIG. 5A). Lsd1 has been characterized to demethylate the activating epigenetic marks H3K4me and H3K4me2 (Shi et al., 2004). […] Consistently, we observed accumulation of the activating H3K4me2 mark at the proximal promoter region (region 2) of the Atoh1 gene during hair cell differentiation (D10, p<0.05*: FIG. 5B). […] In addition, we examined the enrichment levels of H3K4me around the Atoh1 locus. […] Collectively, these findings reveal that Lsd1 inhibition increases accumulation of activating epigenetic marks, thereby facilitating the opening of the chromatin and activating transcription of the Atoh1 gene.
As Lsd1 is also known to demethylate H3K9me2, we analyzed the changes in the levels of this repressive mark at the Atoh1 locus (Metzger et al., 2005).

Tcf/Lef = Tcf/Lef luciferase reporter assay of Wnt activity in inner ear organoids; type: cell-based, mouse; settings: addition of pargyline to CHIR99021 or LYCH; luciferase at 48 hours
Procedure: Luciferase assay. Wnt activity was assessed in inner ear organoids using lentiviral vector expressing Firefly luciferase under the control of 7 Tcf binding sites (Fuerer and Nusse, 2010). Cochlear progenitor cells were dissected from sensory epithelia of wild-type neonatal mice using the established protocol described above (McLean et al., 2017). Dissociated cells were resuspended in proliferation media contain poly brene (Sigma) and lentivirus reporter (7TFC, Addgene #24307) and plated in 96 well plate coated with matrigel for 12-16 hours, [adapted from (Maru et al., 2016)]. The following day, media (containing dead cells and virus) was aspirated and a top layer of matrigel applied to the adherent cells and allowed to solidify, followed by addition of proliferation media. Media was changed every 2 days for 10 days as organoids developed. At day 10, media was changed to differentiation conditions with removal of growth factors and treatment with drug combinations described above. […] Luciferase was measured at 48 hours and normalized to total protein concentration.
Active canonical Wnt signaling is facilitated by the nuclear translocation of β-catenin, which binds with transcription factors of the Tcf/Lef family to activate transcription. […] We also analyzed Wnt activity in the treated cells using a Tcf/Lef reporter assay.

C#CCN(C)Cc1ccccc1 [pargyline, N-Methyl-N-propargylbenzylamine]
levels of H3K4me2 at the enhancer regions (region 5) of Atoh1 (Atoh1 locus; D10 with pargyline): not statistically significant | level of H3K4me2 at the proximal promoter region (region 2) of Atoh1 (Atoh1 locus; D10 with pargyline compared to D0, p<0.01): significantly increased | enrichment for H3K9me2 on the Atoh1 gene (Atoh1 locus; addition of pargyline): did not significantly alter | H3K4me mark at the enhancer region (region 5) of Atoh1 (Atoh1 locus; after pargyline treatment, p<0.01): significant enrichment | Tcf/Lef activity (Tcf/Lef): no significant difference
